Tests used:
[1] = Cytotoxicity against human HuH7 cells; assay type: cell-based, Huh-7
Hepatitis C virus [2] = assay: Antiviral activity against HCV replication in human HuH7 cells expressing Rep-Feo replicon by luciferase assay; assay type: functional, organism-based, Hepacivirus hominis; conditions: Huh-7
Hepatitis C virus [3] = assay: Antiviral activity against HCV JFH1 replication in human Huh7.5.1 cells at 5 uM after 48 hrs by quantitative RT-PCR analysis relative to 1 ng/ml interferon; assay type: functional, Hepacivirus hominis, JFH-1, Huh-7
Hepatitis C virus [4] = assay: Antiviral activity against HCV JFH1 replication in human Huh7.5.1 cells at 1 uM after 48 hrs by quantitative RT-PCR analysis relative to 1 ng/ml interferon; assay type: functional, Hepacivirus hominis, JFH-1, Huh-7

Compound	EC50 (Hepatitis C virus [2]) [µM]	CC50 [1] [µM]	Activity (Hepatitis C virus [3]) [%]	Activity (Hepatitis C virus [4]) [%]
c1ccc(C2NCCc3c2[nH]c2ccccc32)cc1 (stereo unspecified)	30	> 50		
CC(=O)OC[C@H]1O[C@@H](O/N=C2/[C@H]3CCn4c(=O)n(-c5ccccc5)c(=O)n4C3[C@H](O)[C@@H]3O[C@H]23)[C@H](OC(C)=O)[C@@H](OC(C)=O)[C@@H]1OC(C)=O (stereo partly specified)	42.9	> 50		
CCCNC(=O)OC[C@H]1O[C@H](CCO/N=C(\C)CCN2CCc3nc(-c4ccccc4)c(-c4ccccc4)cc3C2)C=C[C@@H]1Oc1ccc(OC)cc1	14.2	> 50		
COc1ccc(O[C@H]2C=C[C@@H](c3ccccc3)O[C@@H]2CO/N=C2/[C@H]3CCn4c(=O)n(-c5ccccc5)c(=O)n4[C@H]3[C@H](O)[C@@H]3O[C@H]23)cc1	2.6	18		
C#CCCCO/N=C1/C[C@@H](O)[C@@H](O)[C@@H]2[C@@H]3C(=O)N(CCC(=O)OCC)C(=O)[C@@H]3CC[C@@H]12	> 100	> 50		
CC[C@@H](c1ccccc1)N1CN2[C@H]3[C@H](O)[C@@H]4O[C@@H]4/C(=N\OC[C@@H](O)COCc4ccco4)[C@H]3CCN2C1=O	2.5	> 50		
O=C1C2C=C(I)C(CC2OCCCCCCO)[C@]12CO2 (stereo partly specified)	26.7	> 50		
O=C1C2C=C(I)C(CC2OCCCCO)[C@]12CCCO2 (stereo partly specified)	> 30	> 50		
O=C1C2C=C(I)C(CC2OCCCCO)[C@]12CO2 (stereo partly specified)	25.7	> 50		
C#CCCCO/N=C1/[C@H]2CCN3C(=O)N([C@@H](CC)c4ccccc4)CN3[C@H]2[C@H](O)[C@@H]2O[C@H]12	3.8	> 50		
C[C@@]12COC[C@]13C=C(Br)C(C2)[C@]1(CO1)C3=O	12.7	> 50		
O=C1C2C=C(Br)C(CC2OCCCCCCO)[C@]12CO2 (stereo partly specified)	19.6	> 50		
O=C1C2C=C(I)C(CC2c2ccccc2)[C@]12CO2 (stereo partly specified)	9.1	> 50		
C[C@H](O/N=C1\[C@H]2CCn3c(=O)n(-c4ccccc4)c(=O)n3C2[C@H](O)[C@@H]2O[C@H]12)c1cn([C@H](CO)Cc2ccccc2)nn1 (stereo partly specified)	7	> 50		
C[C@@H](O/N=C1\[C@H]2CCn3c(=O)n(-c4ccccc4)c(=O)n3C2[C@H](O)[C@@H]2O[C@H]12)c1cn([C@H](CO)Cc2ccccc2)nn1 (stereo partly specified)	7.6	> 50		
COc1ccc(O[C@H]2C=C[C@@H](c3ccccc3)O[C@@H]2CO/N=C(\C)CCN2CCc3nc(-c4ccccc4)c(-c4ccccc4)cc3C2)cc1	21.1	> 50		

Continued, in another order:

EC50 (Hepatitis C virus [2]) [µM]	Compound	CC50 [1] [µM]	Activity (Hepatitis C virus [3]) [%]	Activity (Hepatitis C virus [4]) [%]
1.5	Cc1cc2c(nc1C)CCCN2C[C@H](C)O/N=C1\[C@H]2CCn3c(=O)n(-c4ccccc4)c(=O)n3[C@H]2[C@H](O)[C@@H]2O[C@H]12	39.3		
0.7	CC(=O)OC[C@H]1OC(CCO/N=C2/[C@H]3CCn4c(=O)n(-c5ccccc5)c(=O)n4[C@H]3[C@H](O)[C@@H]3O[C@H]23)C=C[C@@H]1OC(C)=O (stereo partly specified)	9		
< 0.5	Cc1cc(C)c(-c2cc([C@H](C)O/N=C3\[C@H]4CCn5c(=O)n(-c6ccccc6)c(=O)n5C4[C@H](O)[C@@H]4O[C@H]34)on2)c(C)c1 (stereo partly specified)	19.5	48.4	45.1
7	O=c1n(-c2ccccc2)c(=O)n2n1CC[C@@H]1/C(=N\OC[C@@H](O)COCc3ccco3)[C@H]3O[C@H]3[C@@H](O)C12 (stereo partly specified)	> 50		
1.4	C#CCCCO/N=C1/[C@H]2CCN3C(=O)N(c4ccccc4)CN3[C@H]2[C@H](O)[C@@H]2O[C@H]12	> 50		
19.7	O=C1C2C=C(Br)C(CC2c2ccccc2)[C@]12CO2 (stereo partly specified)	> 50		
6.6	O=C1[C@@]2(CO)C=C(Br)C(CC2c2ccccc2)[C@]12CO2 (stereo partly specified)	> 50		
3.5	O=C1[C@@]2(CO)C=C(I)C(CC2c2ccccc2)[C@]12CO2 (stereo partly specified)	27.1	48.4	45.1
7.75	C=CC[C@@H]1C=C[C@H](O/N=C2\[C@H]3CCn4c(=O)n(-c5ccccc5)c(=O)n4[C@H]3[C@H](O)[C@@H]3O[C@H]23)[C@@H](CO)O1	35.3		
8	CO[C@]12C=C(Br)C(CC1c1cccc(C)c1)[C@]1(CO1)C2=O (stereo partly specified)	> 50		
